Assay results as given in publication PMC11993615, “Design, synthesis and optimization of TarO inhibitors as multifunctional antibiotics against Methicillin-resistant Staphylococcus aureus” (npj Antimicrobials and Resistance, 2025).
Converted amounts (≈) assume the structure as drawn.

Experiments:
TarO = TarO (Staphylococcus aureus, UniProt Q2G060); assay type: cell-based; settings: for IC50: relative inhibition rate against the wild-type strain, OD600 at 20 h, n.a. = IC50 cannot be calculated within the test range
[1] = Solubility of compounds in water (HPLC); assay type: physicochemical; settings: pure water
Experimental: Weigh the sample in a 10 mL volumetric flask, dissolve in methanol up to the mark to obtain a reference solution of known concentration. Inject 5 μL into the HPLC, detect peak area at 254 nm wavelength. Prepare supersaturated aqueous solution of the sample, filter and inject 5 μL into the HPLC, detect peak area at 254 nm wavelength. The solubility of the compound in water […] is calculated according to the following formula: CS = CA × AB/AA (CA represents the concentration of the reference solution, AA represents the peak area of the reference solution, and AB represents the saturated peak area of the sample).

[2] = Cytotoxicity assay (Sulforhodamine B); assay type: cell-based; settings: human
Experimental: The cytotoxicity was detected by Sulforhodamine B method. The human pancreatic cancer cell line Capan-1, human colon cancer cell line HCT-116 and human lung adenocarcinoma cell line NCI-H1373 were purchased from American Type Culture Collection (ATCC; Manassas, VA) and inoculated into 96-well plates in triplicate. The cells were treated with different concentrations of compounds in humidified incubator containing 5% CO2 for 72 h when they reached 70%-80% confluence. Vincristine was added as a positive control. Then, SRB staining agent was added and microplate analyzer was used to read the absorbance at 450 nm wavelength. The cytotoxicity of each compound is expressed as the concentration of the compound that reduces cell viability to 50% (IC50). The optical density (OD) at a wavelength of 450 nm was measured using an SpectraMax 190 Microplate Reader (Molecular Devices; USA). The IC50 value was calculated by the Logit method using Graphpad Prism 9.1.

USA300 LAC [3] = test: Checkerboard MIC assay with oxacillin; assay type: cell-based, Staphylococcus aureus; settings: USA300 LAC/oxacillin; for Minimum sensitization concentration: test range 0.03–32 μg/mL
Experimental: (§1) In the checkerboard assay, concentrations of antibiotics, oxacillin and imipenem, and TarO inhibitors were simultaneously varied across columns and the rows, respectively. […] The range of each compound chosen for the checkerboard assay was according to their MIC value. […] For each clear well observed on the checkerboard MIC plate, the fractional inhibitory concentration index (FICI) was calculated as follows: FICI = FIC (inhibitor) + FIC (antibiotic) = MIC inhibitor in combination/ MIC inhibitor alone + MIC antibiotic in combination/MIC antibiotic alone. FIC = Fractional Inhibitory Concentration. A FICI value of < 0.5 indicates synergy, a value between 0.5 and 2 indicates additivity or indifference, and a value > 2 indicates antagonism.

USA400 MW2 [4] = test: Checkerboard MIC assay with oxacillin; assay type: cell-based, Staphylococcus aureus; settings: for Sensitization fold / FICI / Maximum sensitization concentration / Minimum sensitization concentration: USA400 MW2/oxacillin; for Maximum sensitization concentration / Minimum sensitization concentration: test range 0.03–32 μg/mL; for MIC of β-lactam, combined: USA400 MW2
Experimental: as §1

HS663 [5] = test: Checkerboard MIC assay with imipenem; assay type: cell-based, Staphylococcus aureus; settings: for FICI / Sensitization fold / Maximum sensitization concentration / Minimum sensitization concentration: HS663/imipenem; for Maximum sensitization concentration / Minimum sensitization concentration: test range 0.03–32 μg/mL; for MIC of β-lactam, combined: HS663
Experimental: as §1

[6] = test system: TntarO::vraXpro-lux (S.aureus JE2 tarO mutant); test: vraXpro-lux induction and growth of tarO mutant (target verification); assay type: cell-based, Staphylococcus aureus; settings: different concentrations
Experimental: Second, the vraXpro-lux induction and growth inhibition experiment were conducted using a tarO mutant, as we assumed that a compound with other targets may still change the growth characteristic and the vraXpro-lux expression pattern of the mutant, whereas a TarO inhibitor would not, as its target is absent in the mutant.
Generally, JE2::vraXpro-lux and its isogenic ^TntarO::vraXpro-lux reporter strains were used for preliminary screening and cellular-based target verification. JE2::vraXpro-lux was obtained by transduction of the vraXpro-lux fusions from RN4220 strain to JE2, a plasmid-cured derivative of the community-associated MRSA strain USA300 LAC. ^TntarO::vraXpro-lux was further obtained by transposon insertion mutation of the tarO gene using a mariner-based transposon in JE2 reporter strain[41]. […] Then, 200 μL aliquot of the samples were distributed to a 96-well black-wall clear-bottom plate (Costar, Corning Incorporated), and 45 μL saxoline was added to each well to prevent the evaporation of the medium. vraXpro-lux expression level and the growth curve were measured using a Cytation 1 Multi-Mode Microplate Reader (Biotek) at different time points as indicated.

[7] = test system: S.aureus USA300 LAC biofilm; test: Static biofilm inhibition assay (crystal violet); assay type: cell-based, Staphylococcus aureus; settings: USA300 LAC
[8] = Preliminary liver microsomal stability testing; assay type: in vitro ADME, Mouse
Experimental: 6. Supplementary Ta b l e 3: Preliminary liver microsomal stability testing of Ta r O
Compounds Species T1/2 Clint In Vitro MF […]
a MF: metabolic bioavailability.
Microsomes in 0.1 M TRIS buffer pH 7.4 (final concentration 0.33 mg/mL), co- factor MgCl2 (final concentration 5 mM) and tested compound (final concentration 0.1 μM, co-solvent 0.01% DMSO and 0.005% Bovin serum albumin BSA) were incubated at 37°C for 10 min. The reaction was started by the addition of NADPH (final concentration 1 mM). Aliquots were sampled at 0, 5, 15, 30 and 60 min respectively and methanol (cold in wet ice) was added to terminate the reaction.
After centrifugation (4000rpm,5 min), samples were then analyzed by LC- MS/MS.

USA300 LAC [9] = test: MIC determination, broth microdilution; settings: Staphylococcus aureus
USA400 MW2 [10] = test: MIC determination, broth microdilution; settings: Staphylococcus aureus
HS663 [11] = test: MIC determination, broth microdilution
MRSA HS663 strain = test: Galleria mellonella larva infection assay; settings: for survival time of infected larvae: HS663 1.5 × 10^6 CFU
Experimental: Galleria mellonella infection experiment was performed according to previous methods[24]. Generally, HS663 was grown overnight in TSB (Tryptone Soya Broth) at 37 °C with shaking at 250 rpm. Then cultures were diluted 1:100 into 10 ml fresh TSB, and were further grown for 3 h. The bacterial cells were harvested by centrifugation at 5700 g for 5 min, washed twice with sterilized PBS, and suspended with PBS. Galleria mellonella larvae (Tianjin HuiYuDe Biotechnological Co., Ltd.) about 300 mg was selected to infect. […] After infection for 1 h, the larvae were administrated with compounds or solvent only. Then the Galleria mellonella larvae was cultivated at 37 °C and survival rates were recorded every 12 h for 5 days to analyze the mortality data.

[12] = test system: S.aureus USA300 LAC wild-type; test: Antagonistic (chemical suppression) test of 18a against Targocil, checkerboard
[13] = test system: ΔtarO strain of USA300 LAC; test: Chemical suppression test, Targocil on tarO null mutant control; settings: Targocil 2–64 μg/mL
[14] = at maximum sensitization concentration
[15] = at minimum sensitization concentration
[16] = oxacillin with TarO inhibitor at maximum sensitization concentration
[17] = oxacillin with TarO inhibitor at minimum sensitization concentration
[18] = imipenem with TarO inhibitor at maximum sensitization concentration
[19] = imipenem with TarO inhibitor at minimum sensitization concentration

Row | SMILES | IC50 (TarO) | FICI (USA300 LAC [3]; [14]) | Sensitization fold (USA300 LAC [3]; [14]) | FICI (USA300 LAC [3]; [15]) | Sensitization fold (USA300 LAC [3]; [15]) | Minimum sensitization concentration (USA300 LAC [3]) | Sensitization fold (USA400 MW2 [4]; [14]) | FICI (USA400 MW2 [4]; [15]) | Sensitization fold (USA400 MW2 [4]; [15]) | Maximum sensitization concentration (USA400 MW2 [4]) | Minimum sensitization concentration (USA400 MW2 [4]) | MIC of β-lactam, combined (USA400 MW2 [4]; [16]) | MIC of β-lactam, combined (USA400 MW2 [4]; [17]) | FICI (HS663 [5]; [14]) | Sensitization fold (HS663 [5]; [14]) | FICI (HS663 [5]; [15]) | Sensitization fold (HS663 [5]; [15]) | Maximum sensitization concentration (HS663 [5]) | Minimum sensitization concentration (HS663 [5]) | MIC of β-lactam, combined (HS663 [5]; [18]) | other results
1 | C[C@H]1[C@@H](c2cc(C(F)(F)F)cc(C(F)(F)F)c2)OC(=O)N1C(=O)CCn1ccc(=O)c2cccnc21 [Compound 18a] | 3.66 µM | <0.13 | 256 | <0.13 | 8 | 0.03 µg/mL | 64 | <0.26 | 4 | 32 µg/mL | 0.03 µg/mL | 0.25 µg/mL | 4 µg/mL | <0.15 | 8 | <0.51 | 2 | 4 µg/mL | 0.03 µg/mL | 8 µg/mL | solubility [1]: 20 µg/mL (≈ 39 µM); IC50 at 72 h ([2]; Capan-1, 72 h): > 20 µM; IC50 at 72 h ([2]; HCT-116, 72 h): > 20 µM; IC50 at 72 h ([2]; NCI-H1373, 72 h): > 20 µM; MIC of β-lactam, combined (HS663 [5]; [19]): 32 µg/mL; vraXpro-lux expression pattern and growth characteristics of the tarO mutant [6]: neither Tarocin A nor 18a further changed the vraXpro-lux expression pattern as well as the growth characteristics of the mutant; concentration (as low as) significantly reducing biofilm formation ([7]; 24 h static culture): 8 µg/mL; Clint In Vitro ([8]; Mouse liver microsomes): 3051 mL/min/gprot; Comments (metabolic stability) ([8]; Mouse liver microsomes): poor and did not achieve the desired result; half-life at 0.1 μM ([8]; pH 7.4, Mouse liver microsomes 0.33 mg/mL, 0.1 μM compound): 41.4 s; MIC (USA300 LAC [9]): > 256 µg/mL; MIC (USA400 MW2 [10]): > 256 µg/mL; MIC (HS663 [11]; HS663, compound alone): exceeds 256 μg/mL; MIC (HS663 [11]; Staphylococcus aureus): > 256 µg/mL; extension of survival time (MRSA HS663 strain; 16 mg/kg, higher infection dose, HS663 2.0 × 10^6 CFU): even higher than that of 20 mg/kg of imipenem treating group; survival rate of infected larvae, combination (MRSA HS663 strain; 18a 16 mg/kg in combination with 20 mg/kg imipenem, compared with imipenem alone, 2.0 × 10^6 CFU): a further improvement in the survival rate; survival time of infected larvae (MRSA HS663 strain; single administration 8 mg/kg): significantly extended the survival time; survival time of infected larvae (MRSA HS663 strain; single administration 16 mg/kg): significantly extended the survival time; concentration (as low as) alleviating the growth inhibition of Targocil ([12]; WT strain, 18a range 0.25–128 μg/mL): 0.25 µg/mL
2 | CCN(CC)c1nc2c(S(=O)(=O)c3ccc(Cl)cc3)nnn2c2cc(OC)c(OC)cc12 [Targocil, reference compound] |  |  |  |  |  |  |  |  |  |  |  |  |  |  |  |  |  |  |  |  | lethal effect on the tarO mutant [13]: did not exhibit a lethal effect; MIC ([12]; Targocil alone, WT S.aureus): about 8 μg/mL
3 | C[C@H]1[C@@H](c2cc(C(F)(F)F)cc(C(F)(F)F)c2)OC(=O)N1C(=O)Cc1cccc2ccccc12 [Tarocin A, reference compound] | 9.7 µM | <0.26 | 4 | <0.51 | 2 | 0.06 µg/mL | 16 | <0.51 | 2 | 0.5 µg/mL | 0.06 µg/mL | 1 µg/mL | 8 µg/mL | <0.14 | 8 | <0.51 | 2 | 2 µg/mL | 0.25 µg/mL | 8 µg/mL | induction of vraXpro-lux expression (TarO; MRSA USA300 LAC strain, exponential growth phase): concentration-dependent manner; bacterial growth density (OD600) (TarO; post-exponential growth phase): effectively reduced the bacterial growth density; water solubility [1]: almost insoluble in pure water; IC50 at 72 h ([2]; Capan-1 cells (human pancreatic cancer cell line), Capan-1, 72 h): > 20 µM; IC50 at 72 h ([2]; HCT-116 cells (human colon cancer cell line), HCT-116, 72 h): > 20 µM; IC50 at 72 h ([2]; NCI-H1373 cells (human lung adenocarcinoma cell line), NCI-H1373, 72 h): > 20 µM; FICI (USA400 MW2 [4]; [14]): <0.07; MIC of β-lactam, combined (HS663 [5]; [19]): 32 µg/mL; vraXpro-lux expression pattern and growth characteristics of the tarO mutant [6]: neither Tarocin A nor 18a further changed the vraXpro-lux expression pattern as well as the growth characteristics of the mutant; static biofilm formation ([7]; tested concentration range 0.03 to 32 μg/mL): did not reduce static biofilm formation; MIC (USA300 LAC [9]): > 256 µg/mL; MIC (USA400 MW2 [10]): > 256 µg/mL; MIC (HS663 [11]; Staphylococcus aureus): > 256 µg/mL
